Drawing on patent publication US20050282818A1, “Ubiquitin ligase inhibitors” (Rigel Pharmaceuticals, Inc., priority 2004, published 2005), this text covers IC50 for 13 compounds.

Molecules are shown by their SMILES. Where two headings read alike, the source gives them in different places.

One experiment concerns the target T1, TRAF6/Uev1A/Ubc13 (Homo sapiens, UniProt Q9Y4K3).
T1 sequence (Q9Y4K3 1-522): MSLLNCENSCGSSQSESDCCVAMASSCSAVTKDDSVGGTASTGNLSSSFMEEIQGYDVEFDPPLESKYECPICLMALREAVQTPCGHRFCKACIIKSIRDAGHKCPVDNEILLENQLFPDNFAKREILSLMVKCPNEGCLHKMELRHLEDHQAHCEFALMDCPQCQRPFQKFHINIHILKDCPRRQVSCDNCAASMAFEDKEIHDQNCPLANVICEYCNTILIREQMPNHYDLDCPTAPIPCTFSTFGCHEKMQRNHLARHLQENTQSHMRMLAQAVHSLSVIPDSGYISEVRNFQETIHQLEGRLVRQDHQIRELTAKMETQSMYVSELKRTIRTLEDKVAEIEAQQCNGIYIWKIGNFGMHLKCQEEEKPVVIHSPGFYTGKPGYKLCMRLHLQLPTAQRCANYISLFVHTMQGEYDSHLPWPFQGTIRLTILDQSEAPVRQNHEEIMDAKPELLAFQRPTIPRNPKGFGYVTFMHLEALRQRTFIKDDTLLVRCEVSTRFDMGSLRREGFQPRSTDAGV
The experiment in a line: TRAF6/Uev1A/Ubc13 plate-based ubiquitin ligase assay. It counts as biochemical. The essentials:
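Ligase activity was read as luminescence from anti-Flag/HRP detection of Flag-ubiquitin bound to casein-blocked Ni-plates alongside His-ubiquitin after a 1 h room-temperature reaction. Buffer: 62.5 mM Tris pH 7.5, 6.25 mM MgCl2, 1.0 mM DTT, 2 μM ATP; E1, Uev1a/Ubc13 and TRAF6 added last to start. IC50s derived across compound concentrations.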

The subject of another experiment is A549 cells. The experiment in a line: Cell proliferation PAD assay, A549. It counts as cell-based. As to conditions: Homo sapiens, 48 hours. In short, it runs like this: (§1)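 Cells were seeded at 2,000 per well and dosed 24 h later, in duplicate, with 6.3-fold dilution series from a 10 mM master stock diluted 500-fold into wells. After 48 h at 37 °C, 5% CO2, cells were formamide-fixed, DAPI-stained and imaged to count live, apoptotic and dead cells.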

Another experiment has as its system H1299 cells. In words: Cell proliferation PAD assay, H1299. It counts as cell-based. The conditions noted are these: Homo sapiens, 48 hours. In short, it runs like this: as §1
[1] abbreviates: NCI-H1299, 6pt, read-out: H1299 6pt.
[2] abbreviates: NCI-H1299, 3pt, read-out: H1299 3pt.

`O=[N+]([O-])c1ccc(-c2cccc(C(F)(F)F)c2)c2nonc12` [compound 309, 4-Nitro-7-[3-(trifluoromethyl)phenyl]-2,1,3-benzoxadiazole]: the IC50 against TRAF6/Uev1A/Ubc13 was 1 to 20 µM; with A549 cells (6pt, read-out: A549 6pt), 1 to 20 µM; in the experiment with H1299 cells (setting [1]) it was 1 to 20 µM.

In the case of `O=[N+]([O-])c1ccc(N2CCN(c3ncccn3)CC2)c2nonc12` [compound 109, 4-nitro-7-(1,3-(pyrimidin-2-yl)piperazin-1-yl)-2,1,3-benzoxadiazole], the IC50 against TRAF6/Uev1A/Ubc13 was 1 to 20 µM; in the experiment on A549 cells (3pt, read-out: A549 3pt), ≥ 20 µM; in the experiment with H1299 cells (setting [2]), ≥ 20 µM.

As for `COc1cc(Nc2ccc3nonc3c2S(=O)(=O)Nc2cc(OC)c(Cl)cc2OC)c(OC)cc1Cl` [compound 344, N-(4-chloro-2,5-dimethoxyphenyl)-5-([4-chloro-2,5-dimethoxyphenyl]amino)-2,1,3-benzoxadiazole-4-sulfonamide], the IC50 at TRAF6/Uev1A/Ubc13 is ≥ 20 µM; in the experiment on A549 cells (6pt, read-out: A549 6pt), ≥ 20 µM; with H1299 cells (setting [1]) it was ≥ 20 µM.

In the case of `O=[N+]([O-])c1ccc(N2CCN(c3ccc(O)cc3)CC2)c2nonc12` [compound 146, 4-[4-(7-nitro-2,1,3-benzoxadiazol-4-yl)piperazin-1-yl]phenol], the IC50 against TRAF6/Uev1A/Ubc13 fell in the range of 1 to 20 µM; in the experiment on A549 cells (3pt, read-out: A549 3pt), 1 to 20 µM; with H1299 cells (setting [2]) it was 1 to 20 µM.

For the compound `O=S(=O)(Nc1ccc2cn[nH]c2c1)c1ccc(Cl)c2nonc12` [compound 220, 7-chloro-N-1 H-indazol-6-yl-2,1,3-benzoxadiazole-4-sulfonamide], the IC50 at TRAF6/Uev1A/Ubc13 is ≥ 20 µM; in the experiment on A549 cells (3pt, read-out: A549 3pt) it was 1 to 20 µM; in the experiment on A549 cells (6pt, read-out: A549 6pt), 1 to 20 µM; in the experiment on H1299 cells (setting [2]) it was 1 to 20 µM; with H1299 cells (setting [1]), 1 to 20 µM.

Compound `O=S(=O)(Nc1cccc2nonc12)c1ccc(Oc2ncc(C(F)(F)F)cc2Cl)cc1` [compound 78, N-2,1,3-benzoxadiazol-4-yl-4-{[3-chloro-5-(trifluoromethyl)pyridin-2-yl]oxy}benzenesulfonamide] displayed an IC50 at TRAF6/Uev1A/Ubc13 of 1 to 20 µM.

`O=[N+]([O-])c1ccc(Sc2nc3ccccc3s2)c2nonc12` [compound 158, 4-(1,3-benzothiazol-2-ylthio)-7-nitro-2,1,3-benzoxadiazole] showed an IC50 at TRAF6/Uev1A/Ubc13 of 1 to 20 µM.

Regarding `O=[N+]([O-])c1ccc(N2CCN(c3ncc(C(F)(F)F)cc3Cl)CC2)c2nonc12` [compound 315, 4-{4-[3-chloro-5-(trifluoromethyl)pyrindin-2-yl]piperazin-1-yl}-7-nitro-2,1,3-benzoxadiazole], the IC50 against TRAF6/Uev1A/Ubc13 is < 1 µM.

On TRAF6/Uev1A/Ubc13, `O=[N+]([O-])c1ccc(N2CCC(O)(c3ccc(Cl)cc3)CC2)c2nonc12` [compound 159, 4-(4-chlorophenyl)-1-(7-nitro-2,1,3-benzoxadiazol-4-yl)piperidin-4-ol] displayed an IC50 of 1 to 20 µM.

Regarding `CC1CC(C)CN(c2ccc([N+](=O)[O-])c3nonc23)C1` (stereo not drawn) [compound 144, 4-(3,5-dimethylpiperidin-1-yl)-7-nitro-2,1,3-benzoxadiazole], the results for the IC50 at TRAF6/Uev1A/Ubc13 and with H1299 cells (setting [2]) were 1 to 20 µM and ≥ 20 µM, respectively.

Consider `Cc1ccc(Cl)cc1N1CCN(c2ccc([N+](=O)[O-])c3nonc23)CC1` [compound 145, 4-[4-(5-chloro-2-methylphenyl)piperazin-1-yl]-7-nitro-2,1,3-benzoxadiazole], for which the IC50 against TRAF6/Uev1A/Ubc13 is 1 to 20 µM; in the experiment with H1299 cells (setting [2]), ≥ 20 µM.

At TRAF6/Uev1A/Ubc13, `O=[N+]([O-])c1ccc(Oc2ccc(S(=O)(=O)Nc3cccc4nonc34)cc2Cl)c(C(F)(F)F)c1` [compound 114, N-2,1,3-benzoxadiazol-4-yl-3-chloro-4-[4-nitro-2-(trifluoromethyl)phenoxy]benzenesulfonamide] registered an IC50 of 1 to 20 µM.

`O=S(=O)(Nc1cccc2nsnc12)c1ccc(Oc2ccccc2)cc1` [compound 94, N-2,1,3-benzothiadiazol-4-yl-4-phenoxybenzenesulfonamide]: at TRAF6/Uev1A/Ubc13, the IC50 lay in the range of 1 to 20 µM.
